From PubChem BioAssay AID504889 (The Scripps Research Institute Molecular Screening Center, 2011)
The source made the active and inactive calls. The rule behind the calls is not given here.

Target: MCHR1
Test: antagonism of melanin-concentrating hormone receptor MCHR1 – cell-based, fluorescence, dose response, set 2, selectivity assay for GPR7 antagonist project, late-stage follow-up (AID 504889)
Conditions: MCHR1-expressing cells, antagonist mode

Structure (SMILES) | IC50 (run 1) | IC50 (run 2) | IC50 (run 3)
COc1ccc(Oc2c(C3CC3)cnn(-c3ccc(C)cc3)c2=O)cc1 | 5.41 µM | inactive | –
CCc1ccc(-n2ncc(Cl)c(Oc3ccc(OC)cc3)c2=O)cc1 | 3.92 µM | inactive | –
COc1ccc(Oc2c(-c3ccco3)cnn(-c3ccc(C)cc3)c2=O)cc1 | inactive | > 20 µM (inactive) | –
COc1ccc(Oc2c(Br)cnn(-c3ccc(C)cc3)c2=O)cc1 | inactive | inactive | –
Cc1ccc(-n2ncc(Cl)c(Oc3ccc(CO)cc3)c2=O)cc1 | > 20 µM (inactive) | > 20 µM (inactive) | –
COc1ccc(Oc2c(Cl)cnn(-c3ccc(C(C)(C)C)cc3)c2=O)cc1 | 2.7 µM | 8.99 µM | –
Cc1ccc(-n2ncc(Cl)c(Oc3ccc(OC(F)(F)F)cc3)c2=O)cc1 | 2.9 µM | 4.98 µM | –
COc1ccc(Oc2c(Cl)cnn(-c3cccc4ccccc34)c2=O)cc1 | 8.39 µM | 4.46 µM | –
COc1ccc(Oc2c(-c3cccs3)cnn(-c3ccc(C)cc3)c2=O)cc1 | > 20 µM (inactive) | > 20 µM (inactive) | –
CCOc1ccc(Oc2c(Cl)cnn(-c3ccc(C)cc3)c2=O)cc1 | inactive | 8.62 µM | –
COc1ccc(Oc2c(-c3ccccc3)cnn(-c3ccc(C)cc3)c2=O)cc1 | inactive | > 20 µM (inactive) | –
COc1ccc(Oc2c(Cl)cnn(-c3cc(C)cc(C)c3)c2=O)cc1 | 3.94 µM | 5.04 µM | 2.68 µM
COc1ccc(Oc2c(Cl)cnn(-c3cccc(C(C)C)c3)c2=O)cc1 | 1.72 µM | 2.37 µM | –
Cc1ccc(-n2ncc(Cl)c(Oc3ccc(C(F)(F)F)cc3)c2=O)cc1 | 5.51 µM | 8.4 µM | –

More lines, now with the values ahead:

IC50 (run 1) | IC50 (run 2) | IC50 (run 3) | Structure (SMILES)
3.1 µM | 4.3 µM | – | COc1ccc(Oc2c(Cl)cnn(-c3ccc(C(C)C)cc3)c2=O)cc1
7.47 µM | 7.6 µM | – | COc1ccc(Oc2c(C#N)cnn(-c3ccc(C(C)C)cc3)c2=O)cc1
6.89 µM | 4.95 µM | – | COC(=O)c1cnn(-c2ccc(C(C)C)cc2)c(=O)c1Oc1ccc(OC)cc1
5.02 µM | 3.09 µM | – | CCc1ccc(Oc2c(Cl)cnn(-c3ccc(C)cc3)c2=O)cc1
1.96 µM | 1.71 µM | – | COc1ccc(Oc2c(Cl)cnn(-c3ccc(C(C)C)c(C)c3)c2=O)cc1
2.17 µM | 4.71 µM | – | CCC(C)c1ccc(-n2ncc(Cl)c(Oc3ccc(OC)cc3)c2=O)cc1 (centres undefined)
9.81 µM | 8.05 µM | – | COc1ccc(Oc2c(C)cnn(-c3ccc(C(C)C)cc3)c2=O)cc1
inactive | inactive | – | COc1ccc(Oc2c(Cl)cnn(-c3ccc(C)cc3)c2=O)cc1
5.39 µM | 6.79 µM | – | COc1ccc(Oc2c(Cl)cnn(-c3cccc(C)c3)c2=O)cc1
4.78 µM | 5.15 µM | – | COc1ccc(Oc2c(C=O)cnn(-c3ccc(C(C)C)cc3)c2=O)cc1
